Patent publication US12570671B2 (BRISTOL-MYERS SQUIBB COMPANY, priority 2020, dated 2026)

Columns and labels:
[1] = biological target: Helios (Homo sapiens, UniProt Q96SW2+Q9UKS7); experiment: Helios Cellular Degradation Assay (Helios readout); type: cell-based; design: endogenous in cells; host or cells: Jurkat; details: Jurkat cells, 72 h incubation, Helios-PE antibody staining, flow cytometry; read-out: Helios Jurkat IC50
Method: (§1) Jurkat cells were plated at 80,000 cells/well in 40 μL RPMI+10% FBS in a 384 well cell culture plate prior to using acoustic dispensing technology for adding compound of interest. Cell cultures were incubated for 72 h at 37° C. and 5% C02. In order to facilitate analysis, cell cultures were spun down at 200 rpm for 5 min and the supernatant was discarded. After shaking the plate to dislodge the cell pellet, cells were resuspended in 50 μL of Fixation Buffer (eBioScience FoxP3 buffer set 00-5523-00) for 60 min at room temperature. After centrifuging and discarding the supernatant, cells were permeabilized with 50 μL of Permeabilization buffer (eBioScience FoxP3 buffer set 00-5523-00) for 10 min at room temperature. Following permeabilization, cells were spun down and the supernatant was replaced with 20 μL fluorescently labelled antibodies against Helios, Ikaros and Aiolos or corresponding Isotype controls in 1× Permeabilization buffer (Ikaros-Alexa488 [Biolegend, Cat #368408, 1:50], Helios-PE [CST, Cat #29360, 1:50], Aiolos-Alexa647 [Biolegend, Cat #371106Biolegend, 1:25]) and staining reactions were incubated for 1 h at room temperature; protected from light. Subsequently, 30 μL of 1× Permeabilization buffer was added prior to centrifuging the cells and discarding the supernatant. Stained cells were resuspended in 25 μL of flow cytometry staining buffer (PBS+0.2% BSA) and analyzed using an Intellicyt Ique Plus flow cytometer.

[2] = biological target: Ikaros (Homo sapiens, UniProt Q13422+Q96SW2); experiment: Helios Cellular Degradation Assay (Ikaros readout); type: cell-based; design: endogenous in cells; host or cells: Jurkat; details: Jurkat cells, 72 h incubation, Ikaros-Alexa488 antibody staining, flow cytometry; read-out: Ikaros Jurkat IC50
Method: as §1

Chain of Ikaros (Q13422 whole entry): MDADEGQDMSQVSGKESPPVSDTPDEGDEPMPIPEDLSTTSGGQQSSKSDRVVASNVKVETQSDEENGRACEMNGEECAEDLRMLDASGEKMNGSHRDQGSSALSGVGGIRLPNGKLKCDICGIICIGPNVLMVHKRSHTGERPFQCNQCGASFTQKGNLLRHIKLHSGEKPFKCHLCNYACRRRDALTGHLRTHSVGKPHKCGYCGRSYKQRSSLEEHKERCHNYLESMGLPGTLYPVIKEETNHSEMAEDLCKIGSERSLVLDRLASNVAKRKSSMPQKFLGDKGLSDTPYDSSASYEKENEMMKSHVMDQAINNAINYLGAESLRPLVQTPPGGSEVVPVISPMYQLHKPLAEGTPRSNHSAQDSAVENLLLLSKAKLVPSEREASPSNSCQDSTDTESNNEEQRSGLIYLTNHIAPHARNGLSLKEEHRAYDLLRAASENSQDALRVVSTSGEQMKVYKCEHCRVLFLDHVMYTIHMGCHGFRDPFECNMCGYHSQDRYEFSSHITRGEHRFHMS
Chain of Ikaros (Q96SW2 whole entry): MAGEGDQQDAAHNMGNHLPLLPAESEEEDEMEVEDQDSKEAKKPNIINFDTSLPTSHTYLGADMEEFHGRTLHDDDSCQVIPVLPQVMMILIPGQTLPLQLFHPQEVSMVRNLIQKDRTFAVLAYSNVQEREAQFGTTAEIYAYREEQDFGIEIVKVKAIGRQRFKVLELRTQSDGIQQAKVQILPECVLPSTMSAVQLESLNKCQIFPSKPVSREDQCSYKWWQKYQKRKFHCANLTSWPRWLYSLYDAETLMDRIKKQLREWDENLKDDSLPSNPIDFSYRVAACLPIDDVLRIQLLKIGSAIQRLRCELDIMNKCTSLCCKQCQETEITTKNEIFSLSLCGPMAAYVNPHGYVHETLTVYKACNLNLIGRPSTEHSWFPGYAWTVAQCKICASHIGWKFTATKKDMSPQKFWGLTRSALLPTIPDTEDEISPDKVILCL
Chain of Ikaros (Q16531 whole entry partner): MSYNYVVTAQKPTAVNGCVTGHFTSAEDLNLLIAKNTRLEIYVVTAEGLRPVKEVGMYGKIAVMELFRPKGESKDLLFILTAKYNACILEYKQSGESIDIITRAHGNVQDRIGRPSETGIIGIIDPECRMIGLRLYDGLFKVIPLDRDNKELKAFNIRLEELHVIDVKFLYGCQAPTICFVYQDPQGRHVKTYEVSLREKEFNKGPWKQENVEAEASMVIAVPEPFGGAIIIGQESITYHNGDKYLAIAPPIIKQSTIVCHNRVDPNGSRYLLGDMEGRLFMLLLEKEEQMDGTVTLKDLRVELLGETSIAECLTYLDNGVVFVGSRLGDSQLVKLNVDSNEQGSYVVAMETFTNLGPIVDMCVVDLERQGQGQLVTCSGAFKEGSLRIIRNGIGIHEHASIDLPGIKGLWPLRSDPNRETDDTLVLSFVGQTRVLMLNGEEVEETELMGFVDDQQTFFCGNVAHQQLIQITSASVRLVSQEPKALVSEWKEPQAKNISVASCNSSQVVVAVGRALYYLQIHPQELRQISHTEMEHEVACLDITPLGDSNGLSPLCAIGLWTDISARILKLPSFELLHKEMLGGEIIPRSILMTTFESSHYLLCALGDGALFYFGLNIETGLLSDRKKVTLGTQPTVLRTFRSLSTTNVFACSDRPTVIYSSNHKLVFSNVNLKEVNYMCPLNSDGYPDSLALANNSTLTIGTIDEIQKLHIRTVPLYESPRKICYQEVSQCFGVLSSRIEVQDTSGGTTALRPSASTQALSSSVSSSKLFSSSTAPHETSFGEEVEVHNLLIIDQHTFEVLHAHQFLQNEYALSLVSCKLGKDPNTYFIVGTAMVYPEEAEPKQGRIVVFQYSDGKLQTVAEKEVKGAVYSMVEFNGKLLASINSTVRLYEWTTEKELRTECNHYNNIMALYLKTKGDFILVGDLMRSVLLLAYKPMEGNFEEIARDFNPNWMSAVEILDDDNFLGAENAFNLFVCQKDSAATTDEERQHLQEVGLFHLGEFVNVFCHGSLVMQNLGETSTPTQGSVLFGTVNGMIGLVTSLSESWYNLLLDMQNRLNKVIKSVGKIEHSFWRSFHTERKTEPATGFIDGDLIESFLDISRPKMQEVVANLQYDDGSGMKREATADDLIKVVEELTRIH
Chain of Helios (Q9UKS7 whole entry): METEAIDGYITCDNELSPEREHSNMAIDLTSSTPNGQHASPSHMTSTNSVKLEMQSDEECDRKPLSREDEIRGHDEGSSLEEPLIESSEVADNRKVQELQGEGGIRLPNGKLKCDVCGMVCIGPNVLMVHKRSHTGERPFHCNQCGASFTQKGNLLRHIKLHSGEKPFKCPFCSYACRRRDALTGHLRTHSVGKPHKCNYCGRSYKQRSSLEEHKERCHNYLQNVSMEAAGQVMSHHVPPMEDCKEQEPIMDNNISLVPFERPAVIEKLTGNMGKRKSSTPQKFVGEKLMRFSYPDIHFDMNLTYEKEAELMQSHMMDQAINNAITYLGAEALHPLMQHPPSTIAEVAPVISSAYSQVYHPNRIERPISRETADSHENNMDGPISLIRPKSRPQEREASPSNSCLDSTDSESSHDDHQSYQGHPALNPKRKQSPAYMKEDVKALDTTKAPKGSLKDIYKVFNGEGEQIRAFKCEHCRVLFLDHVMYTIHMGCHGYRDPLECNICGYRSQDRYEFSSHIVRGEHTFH
Chain of Helios (Q96SW2 whole entry): as the sequence (Q96SW2 whole entry) above
Chain of Helios (Q16531 whole entry partner): as the sequence (Q16531 whole entry partner) above

Row | Structure (SMILES) | DC50 [1] [µM] | DC50 [2] [µM]
1 | O=C1CCC(N2Cc3cc(-c4cc(O)c5ccccc5n4)ccc3C2=O)C(=O)N1 (stereo not shown) [Example 37, 3-[5-(4-hydroxyquinolin-2-yl)-1-oxo-2,3-dihydro-1H-isoindol-2-yl]piperidine-2,6-dione] | 2.4 | > 20
2 | Nc1nc(-c2ccc3c(c2)CN(C2CCC(=O)NC2=O)C3=O)nc2nc[nH]c12 (stereo not shown) [Example 44, 3-[5-(6-amino-7H-purin-2-yl)-1-oxo-2,3-dihydro-1H-isoindol-2-yl]piperidine-2,6-dione] | 0.098 | > 20
3 | O=C1CCC(N2Cc3cc(-c4nccc(-c5cccnc5)n4)ccc3C2=O)C(=O)N1 (stereo not shown) [Example 72, 3-(1-oxo-5-(4-(pyridin-3-yl)pyrimidin-2-yl)isoindolin-2-yl)piperidine-2,6-dione] | > 20 | > 20
4 | CN(C)Nc1cccc(-c2ccc3c(c2)CN(C2CCC(=O)NC2=O)C3=O)n1 (stereo not shown) [Example 138, 3-{5-[6-(2,2-dimethylhydrazin-1-yl)pyridin-2-yl]-1-oxo-2,3-dihydro-1H-isoindol-2-yl}piperidine-2,6-dione] | 0.92 | ≥ 10
5 | CS(=O)(=O)N1CCN(c2cc(N)nc(-c3ccc4c(c3)CN(C3CCC(=O)NC3=O)C4=O)c2)CC1 (stereo not shown) [Example 185, 3-(5-(6-amino-4-(4-(methylsulfonyl)piperazin-1-yl)pyridin-2-yl)-1-oxoisoindolin-2-yl) piperidine-2,6-dione] | 6.4 | ≥ 10
6 | COC(=O)c1ccc2cnc(-c3ccc4c(c3)CN(C3CCC(=O)NC3=O)C4=O)nc2c1 (stereo not shown) [Example 41, methyl 2-[2-(2,6-dioxopiperidin-3-yl)-1-oxo-2,3-dihydro-1H-isoindol-5-yl]quinazoline-7-carboxylate] | > 20 | > 20
7 | COc1cccc2c(-c3ccc4c(c3)CN(C3CCC(=O)NC3=O)C4=O)nc(N)cc12 (stereo not shown) [Example 54, 3-[5-(3-Amino-5-methoxyisoquinolin-1-yl)-1-oxo-2,3-dihydro-1H-isoindol-2-yl]piperidine-2,6-dione] | 0.04 | 5
8 | Cc1ccc(-c2ccc3c(c2)CN(C2CCC(=O)NC2=O)C3=O)nc1N (stereo not shown) [Example 116, 3-(5-(6-amino-5-methylpyridin-2-yl)-1-oxoisoindolin-2-yl)piperidine-2,6-dione] | 0.17 | ≥ 10
9 | Cc1cc(C#N)c(-c2ccc3c(c2)CN(C2CCC(=O)NC2=O)C3=O)nc1N (stereo not shown) [Example 180, 6-amino-2-(2-(2,6-dioxopiperidin-3-yl)-1-oxoisoindolin-5-yl)-5-methylnicotinonitrile] | 0.02 | ≥ 10
10 | O=C1CCC(N2Cc3cc(-c4nccc5[nH]ccc45)ccc3C2=O)C(=O)N1 (stereo not shown) [Example 160, 3-(1-oxo-5-(1H-pyrrolo[3,2-c]pyridin-4-yl)isoindolin-2-yl)piperidine-2,6-dione] | 0.07 | ≥ 20
11 | CC(C)c1cc(N)nc(-c2ccc3c(c2)CN(C2CCC(=O)NC2=O)C3=O)c1C#N (stereo not shown) [Example 179, 6-amino-2-(2-(2,6-dioxopiperidin-3-yl)-1-oxoisoindolin-5-yl)-4-isopropylnicotinonitrile] | ≥ 10 | ≥ 10
12 | CCCc1cc(N)nc(-c2ccc3c(c2)CN(C2CCC(=O)NC2=O)C3=O)c1C#N (stereo not shown) [Example 173, 6-amino-2-(2-(2,6-dioxopiperidin-3-yl)-1-oxoisoindolin-5-yl)-4-propylnicotinonitrile] | 0.12 | ≥ 10
13 | COc1cc(N)nc(-c2ccc3c(c2)CN(C2CCC(=O)NC2=O)C3=O)c1 (stereo not shown) [Example 164, 3-(5-(6-amino-4-methoxypyridin-2-yl)-1-oxoisoindolin-2-yl)piperidine-2,6-dione] | 0.04 | ≥ 20
14 | O=C1CCC(N2Cc3cc(-c4cnc5ccccc5n4)ccc3C2=O)C(=O)N1 (stereo not shown) [Example 7, 3-[1-oxo-5-(quinoxalin-2-yl)-2,3-dihydro-1H-isoindol-2-yl]piperidine-2,6-dione] | 0.073 | > 20
